Structures are written as SMILES. Bounds are passed on as bounds.

The test deals with T1, USP28 (His-tagged USP28-FL-mammalian) (Homo sapiens, UniProt Q96RU2).
T1 construct: Expression of USP28 (1-1077)-TEV-6*His (pTT5 vector); made in house; host or cells: Expi293f cells (pTT5 vector)
T1 sequence (Q96RU2 1-1077): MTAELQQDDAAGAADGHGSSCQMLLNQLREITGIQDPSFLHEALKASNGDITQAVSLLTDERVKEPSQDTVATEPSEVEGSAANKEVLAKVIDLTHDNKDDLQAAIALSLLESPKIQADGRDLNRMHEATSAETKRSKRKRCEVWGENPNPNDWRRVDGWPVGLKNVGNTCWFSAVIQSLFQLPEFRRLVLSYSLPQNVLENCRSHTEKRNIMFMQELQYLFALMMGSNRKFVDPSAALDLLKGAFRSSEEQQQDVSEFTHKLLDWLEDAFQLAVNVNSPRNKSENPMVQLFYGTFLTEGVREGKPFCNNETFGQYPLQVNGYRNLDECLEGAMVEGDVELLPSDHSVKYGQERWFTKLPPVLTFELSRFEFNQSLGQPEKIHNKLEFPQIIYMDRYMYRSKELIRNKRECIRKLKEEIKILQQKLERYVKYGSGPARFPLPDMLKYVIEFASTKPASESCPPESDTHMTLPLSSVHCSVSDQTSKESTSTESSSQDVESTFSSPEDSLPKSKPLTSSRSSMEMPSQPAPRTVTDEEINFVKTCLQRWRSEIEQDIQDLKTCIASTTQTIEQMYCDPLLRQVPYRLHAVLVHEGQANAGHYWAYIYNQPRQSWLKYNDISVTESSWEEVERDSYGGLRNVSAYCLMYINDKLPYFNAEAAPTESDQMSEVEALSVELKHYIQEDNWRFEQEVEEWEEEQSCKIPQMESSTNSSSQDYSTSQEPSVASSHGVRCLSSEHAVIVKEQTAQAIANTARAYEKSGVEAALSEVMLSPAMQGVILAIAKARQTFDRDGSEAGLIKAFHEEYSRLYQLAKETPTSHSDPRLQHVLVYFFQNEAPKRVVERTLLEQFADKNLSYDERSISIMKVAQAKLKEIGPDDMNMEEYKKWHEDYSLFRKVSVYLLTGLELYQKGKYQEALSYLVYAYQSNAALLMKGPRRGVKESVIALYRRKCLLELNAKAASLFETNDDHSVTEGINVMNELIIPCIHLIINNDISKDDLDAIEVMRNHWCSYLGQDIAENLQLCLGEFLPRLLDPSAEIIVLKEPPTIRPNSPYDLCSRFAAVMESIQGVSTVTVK
The test can be described thus: Ubiquitin-Rhodamine 110 Assay for USP28 Activity, Example A-1(a). Conditions: Ubiquitin-Rhodamine 110 assay, Example A-1(a); read-out: USP28 A-1(a) IC50 range. It is filed as biochemical. An outline of the steps:
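Full-length His-tagged USP28 (1-1077, Expi293F-expressed; […]) was preincubated 30 min with compound (25 μM–1.3 nM, 10-point 3-fold) in 20 mM Tris-HCl pH 8.0, 3 mM BME, 0.03% BGG, 0.01% Triton X-100. Ub-Rh110 (25 nM) was then added for 45 min at room temperature, stopped with citric acid, and read by fluorescence (485/535 nm).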
The term IC50 denotes the concentration needed to halve the response being measured. Take `Cc1ccc2c(N)c(C(=O)N[C@H]3CCc4nc(N5CCNCC5)c(F)cc4C3)sc2n1` (single isomer, unassigned) [Example 30-1]: the half-inhibitory concentration (IC50) was 0.001 to 0.05 µM.

As to `Cc1cnc2c(N)c(C(=O)N[C@H]3COc4c(C#N)c(N5CC6CC(C5)N6)cc(F)c4C3)sc2n1` [Example 77, N-((3R)-7-(3,6-diazabicyclo[3.1.1]heptan-3-yl)-8-cyano-5-fluorochroman-3-yl)-7-amino-3-methylthieno[2,3-b]pyrazine-6-carboxamide], the IC50 was in the range of 0.05 to 0.2 µM.

As for `Cc1ccc2c(N)c(C(=O)N[C@H]3CCc4nc(N5CC6CC(C5)N6)ccc4C3)sc2n1` [Example 23-10, 3-amino-N-[(6S)-2-{3,6-diazabicyclo[3.1.1]heptan-3-yl}-5,6,7,8-tetrahydroquinolin-6-yl]-6-methylthieno[2,3-b]pyridine-2-carboxamide], the IC50 was in the range of 0.2 to 2 µM.

Turning to `Cc1ccc2c(N)c(C(=O)N[C@H]3COc4cc([C@H]5CCNCC5(F)F)ccc4C3)sc2n1` [Example 69, 3-amino-N-((R)-7-((R)-3,3-difluoropiperidin-4-yl)chroman-3-yl)-6-methylthieno[2,3-b]pyridine-2-carboxamide], the IC50 was in the range of 0.001 to 0.05 µM.

Consider `Cc1cnc2c(N)c(C(=O)N[C@H]3CCc4nc(N5CC6CCC(C5)N6)ccc4C3)sc2n1` [Example 23-13, 7-amino-N-{(6S)-2-{3,8-diazabicyclo[3.2.1]octan-3-yl}-5,6,7,8-tetrahydroquinolin-6-yl]-3-methylthieno[2,3-b]pyrazine-6-carboxamide], for which the half-inhibitory concentration (IC50) lay within 0.001 to 0.05 µM.

For the compound `O=C(N[C@H]1COc2cc(N3CC4CCC(C3)N4)ccc2C1)c1cnc2c(c1)CCCO2` [Example 51, N-((3R)-7-(3,8-diazabicyclo[3.2.1]octan-3-yl)chroman-3-yl)-3,4-dihydro-2H-pyrano[2,3-b]pyridine-6-carboxamide], the IC50 lay in the range of 0.2 to 2 µM.

`CO[C@@H]1CN(c2cc3c(cc2F)C[C@@H](NC(=O)c2sc4nc(C)ccc4c2N)CO3)C[C@H]1N` [Example 93, 3-amino-N-[(3R)-7-[(3R,4R)-3-amino-4-methoxypyrrolidin-1-yl]-6-fluoro-3,4-dihydro-2H-1-benzopyran-3-yl]-6-methylthieno[2,3-b]pyridine-2-carboxamide]: the IC50 was in the range of 0.05 to 0.2 µM.

As to `Cc1ccc2c(N)c(C(=O)N[C@H]3COc4cc(C5(C#N)CCS(=O)(=O)CC5)ccc4C3)sc2n1` [Example 34, 3-amino-N-[(3R)-7-(4-cyano-1,1-dioxo-1λ6-thian-4-yl)-3,4-dihydro-2H-1-benzopyran-3-yl]-6-methylthieno[2,3-b]pyridine-2-carboxamide], the IC50 lay in the range of 0.001 to 0.05 µM.

As to `Cc1ccc2c(N)c(C(=O)N[C@H]3CCc4nc(N5CCNCC5)ccc4C3)sc2n1` (single isomer, unassigned) [Example 23-7], the IC50 fell in the range of 0.001 to 0.05 µM.

On to `Cc1nc2sc(C(=O)N[C@H]3COc4cc(N5CCNCC5)c(F)c(F)c4C3)c(N)c2s1` [Example 66, (R)-6-amino-N-(5,6-difluoro-7-(piperazin-1-yl)chroman-3-yl)-2-methylthieno[2,3-d]thiazole-5-carboxamide], for which the IC50 lay in the range of 0.001 to 0.05 µM.

For the compound `CO[C@@H]1CN(c2cc(F)c3c(c2F)OC[C@H](NC(=O)c2sc4nc(C)ccc4c2N)C3)C[C@H]1N` [Example 86], the half-maximal inhibitory concentration (IC50) fell in the range of 0.001 to 0.05 µM.

Consider `Cc1ccc2c(N)c(C(=O)N[C@H]3CCc4nc(N5CCNCC5)cc(F)c4C3)sc2n1` [Example 23-17, 3-amino-N-[(6S)-4-fluoro-2-(piperazin-1-yl)-5,6,7,8-tetrahydroquinolin-6-yl]-6-methylthieno[2,3-b]pyridine-2-carboxamide], for which the IC50 was in the range of 0.001 to 0.05 µM.

On to `O=C(N[C@H]1COc2cc(N3CCNCC3)ccc2C1)c1ccc(NCc2ccccc2)nc1` [Example 52, (R)-6-(benzylamino)-N-(7-(piperazin-1-yl)chroman-3-yl)nicotinamide], for which the IC50 is 0.2 to 2 µM.

Take `O=C(N[C@H]1COc2cc(N3CCNCC3)ccc2C1)c1cnc2c(c1)CC[C@@H]2O` [Example 58, (S)-7-hydroxy-N-((R )-7-(piperazin-1-yl)chroman-3-yl)-6,7-dihydro-5H-cyclopenta[b]pyridine-3-carboxamide]: the IC50 lay in the range of 0.2 to 2 µM.

As to `Cc1cnc2c(N)c(C(=O)N[C@H]3COc4cc(N5CCNCC5)ncc4C3)sc2n1` [Example 71, (R)-7-amino-3-methyl-N-(7-(piperazin-1-yl)-3,4-dihydro-2H-pyrano[3,2-c]pyridin-3-yl)thieno[2,3-b]pyrazine-6-carboxamide], the IC50 lay within 0.05 to 0.2 µM.

For `Cc1ccc2c(N)c(C(=O)N[C@H]3Cc4ccc(N5CCNCC5)nc4C4(CC4)C3)sc2n1` (single isomer, unassigned) [Example 31-4, 3-amino-6-methyl-N-[(6′R)-2′-(piperazin-1-yl)-6′,7′-dihydro-5′H-spiro[cyclopropane-1,8′-quinoline]-6′-yl]thieno[2,3-b]pyridine-2-carboxamide], the IC50 is 0.001 to 0.05 µM.

On to `Cc1ccc2c(N)c(C(=O)N[C@H]3CCc4nc(N5CCN[C@H](C)C5)ccc4C3)sc2n1` (single isomer, unassigned) [Example 23-16], for which the IC50 is 0.001 to 0.05 µM.

As to `Cc1ccc2c(N)c(C(=O)N[C@H]3CCc4nc(N5CC6CCC(C5)N6)cc(F)c4C3)sc2n1` [Example 23-18, N-((6S)-2-(3,8-diazabicyclo[3.2.1]octan-3-yl)-4-fluoro-5,6,7,8-tetrahydroquinolin-6-yl)-3-amino-6-methylthieno[2,3-b]pyridine-2-carboxamide], the IC50 fell in the range of 0.001 to 0.05 µM.

As to `Cc1ccc2c(N)c(C(=O)N[C@H]3CCc4nc(N5CC6CCC(C5)N6)ccc4C3)sc2n1` [Example 23-12, 3-amino-N-[(6S)-2-{3,8-diazabicyclo[3.2.1]octan-3-yl}-5,6,7,8-tetrahydroquinolin-6-yl]-6-methylthieno[2,3-b]pyridine-2-carboxamide], the 50% inhibitory concentration (IC50) lay in the range of 0.001 to 0.05 µM.

Turning to `CO[C@H]1CN(c2cc(F)c3c(c2F)OC[C@H](NC(=O)c2sc4nc(C)ccc4c2N)C3)C[C@@H]1N` [Example 87, 3-amino-N-((R)-7-((3S,4S)-3-amino-4-methoxypyrrolidin-1-yl)-5,8-difluorochroman-3-yl)-6-methylthieno[2,3-b]pyridine-2-carboxamide], the IC50 fell in the range of 0.001 to 0.05 µM.

For the compound `Cc1ccc2c(N)c(C(=O)N[C@H]3COc4cc([C@@H]5CCNC[C@@H]5O)ccc4C3)sc2n1` [Example 63, 3-amino-N-((R)-7-((3R,4S)-3-hydroxypiperidin-4-yl)chroman-3-yl)-6-methylthieno[2,3-b]pyridine-2-carboxamide], the IC50 lay within 0.001 to 0.05 µM.

`Cc1nc2sc(C(=O)N[C@H]3COc4cc(N5CCNCC5)ncc4C3)c(N)c2cc1F` [Example 72, (R)-3-amino-5-fluoro-6-methyl-N-(7-(piperazin-1-yl)-3,4-dihydro-2H-pyrano[3,2-c]pyridin-3-yl)thieno[2,3-b]pyridine-2-carboxamide]: the IC50 lay in the range of 0.001 to 0.05 µM.

As for `C[C@H]1CCc2cc(C(=O)N[C@H]3COc4cc(N5CC6CCC(C5)N6)ccc4C3)cnc2N1` [Example 73, (7S)-N-((3R)-7-(3,8-diazabicyclo[3.2.1]octan-3-yl)chroman-3-yl)-7-methyl-5,6,7,8-tetrahydro-1,8-naphthyridine-3-carboxamide], the IC50 is more than 2 µM.

`Cc1ccc2c(N)c(C(=O)N[C@H]3COc4cc(N5CCNCC5)c(F)c(F)c4C3)sc2n1` [Example 61, (R)-3-amino-N-(5,6-difluoro-7-(piperazin-1-yl)chroman-3-yl)-6-methylthieno[2,3-b]pyridine-2-carboxamide]: the IC50 lay within 0.001 to 0.05 µM.

As for `Cc1ccc2c(N)c(C(=O)N[C@H]3COc4cc(N5C[C@H]6CNC[C@@H]6C5)ccc4C3)sc2n1` [Example 43, 3-amino-N-((R)-7-((3aR,6aR)-hexahydropyrrolo[3,4-c]pyrrol-2(1H)-yl)chroman-3-yl)-6-methylthieno[2,3-b]pyridine-2-carboxamide], the IC50 lay within 0.2 to 2 µM.

Turning to `O=C(N[C@H]1COc2c(F)c(N3CC4CCC(C3)N4)cc(F)c2C1)c1cnc2c(c1)[C@H]1C[C@H]1CN2` [Example 90, (1aR,7bS)-N-((3R)-7-(3,8-diazabicyclo[3.2.1]octan-3-yl)-5,8-difluorochroman-3-yl)-1a,2,3,7b-tetrahydro-1H-cyclopropa[c][1,8]naphthyridine-6-carboxamide], the IC50 fell in the range of 0.2 to 2 µM.

The values above are taken from patent publication US11524966B1 (Valo Early Discovery, Inc., priority 2017, dated 2022).
